Source: patent US20250051243A1, “Nano Bio-Carrier with Plant Additives Combined with Chemical Fertilizers” (Sabic Agri-Nutrients Company, priority 2021, published 2025)

Tested on: Maize
Assay: Maize trials: soil and foliar application of nano chitosan fertilizer product on maize crops (greenhouse pots)
Assay type: in vivo
Protocol: Maize trials. Assays were also performed to evaluate soil and foliar application of nano chitosan fertilizer product on maize crops. These trials were also performed to investigate the effect of different concentrations of bulk and nano chitosan on the growth and productivity of maize. The maize trials included a further formulation for nano-chitosan urea, namely a urea-chitosan nanocomposite. The urea-chitosan nanocomposite was prepared by evaporating or freeze-drying the nano-chitosan fertilizer aqueous solution. The current urea-chitosan nanocomposite was prepared by evaporating an aqueous solution of nanochitosan urea at 50° C. for two days in an oven. Nanocomposite morphology of the urea-chitosan nanocomposite was confirmed based on SEM and compositional analysis shown in FIGS. 6A-6E and TEM shown in FIGS. 7A-7E. For SEM and compositional analysis on solid form, samples were studied in Zeiss EVO 15 after coating samples with gold to avoid charging. The powder was mounted on an aluminum stub. Based on the EDS analysis, it appeared that chitosan and urea was present in this powder. For the TEM analysis, a small amount of the sample was taken in a small vial, diluted with DM water and sonicated for 15 mins. One to two drops of this solution was taken on a formvar grid, the excess liquid was blotted on a filter paper, and TEM analysis was carried out Tecnai F20 at representative magnifications shown in FIGS. A thin grey film in the background with very small sized darker particles were apparent. An occasional larger sized film was also seen. Because urea dissolves in water, the morphology seen in the images of this sample was primarily urea-chitosan nanocomposite (nanoparticles). The process of drying in an oven over two days ensured steady removal of water without disturbing the nano-morphology of the urea-chitosan nanocomposite. Table 6 presents the trial details for the soil and foliar application of nano chitosan fertilizer product on maize crops. [table] Control samples were T1 (urea granules, at different time); T2 (urea and zinc, commercially available); and T13 (urea powder). As shown, Table 7A also presents the varying concentrations for the samples. […] Each rectangle represented a section or table in the greenhouse and the respective Trial sample(s) shown thereon. […] FIG. 13 is a graphical representation of the number of leaves apparent at 30 days after sowing (DAS) and at 60 DAS for samples T1 through T23. […] The amount of chlorophyll present in the leaf for samples T1 through T23 was measured using a soil plant analysis development (SPAD) chlorophyll meter and is shown in FIG. 14. […]

NC(N)=O [T13, urea]
SPAD READING 30 DAS (leaf chlorophyll, SPAD chlorophyll meter, 30 DAS): 34.50
SPAD READING 60 DAS (leaf chlorophyll, SPAD chlorophyll meter, 60 DAS): 33.33
Cob Yield (maize): 7.33 g
Grain Yield (maize): 0.00 g
Plant Height 30 DAS (maize, 30 DAS): 124.33 centimeters
Plant height 60 DAS (maize, 60 DAS): 159.00 centimeters
No. of leaves 30 DAS (maize, 30 days after sowing, soil or foliar application as per treatment): 8.67
No. of leaves 60 DAS (maize, 60 days after sowing, soil or foliar application as per treatment): 12.67
corn cob development (grains within the cob) (observation by greenhouse section A, B, C): failed to show grains
